Compound in the assay “CX-5461 + Vorinostat”: Cc1cnc(CNC(=O)c2c(=O)c3ccc(N4CCCN(C)CC4)nc3n3c2sc2ccccc23)cn1 [CX-5461] + O=C(CCCCCCC(=O)Nc1ccccc1)NO [Vorinostat] (partner 1 µM)
The assay can be described thus: relative viability (nuclei count vs DMSO), 5 days (fraction); higher = more cells survive. In short, it runs like this:
(§1)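 Relative viability was taken as the ratio of nuclei in treated wells to nuclei in vehicle wells. Lung cancer cell lines in 1536-well plates received compounds by pin tool one day after seeding, either one drug alone or a fixed anchor-drug dose plus five library-drug doses (not always all listed) in √10 steps. Nuclei were counted on 4× images after 5 days of treatment, and values are medians of duplicate plates.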

Compound in the assay “CX-5461 + AZD7762”: Cc1cnc(CNC(=O)c2c(=O)c3ccc(N4CCCN(C)CC4)nc3n3c2sc2ccccc23)cn1 [CX-5461] + NC(=O)Nc1cc(-c2cccc(F)c2)sc1C(=O)N[C@H]1CCCNC1 [AZD7762] (partner 0.2 µM)
Described as above. In short, it runs like this: as §1

One cell line from the supplement of paper PMC10307832 can be followed below.

As to SW 900, the relative viability was determined as 0.446 in the assay with CX-5461 + Vorinostat (first compound 0.01 µM); 0.586 with CX-5461 + Vorinostat (first compound 0.03162 µM); 0.637 with CX-5461 + Vorinostat (first compound 0.3162 µM); 0.359 with CX-5461 + Vorinostat (first compound 1 µM); 0.657 with CX-5461 + AZD7762 (first compound 0.01 µM); 0.627 with CX-5461 + AZD7762 (first compound 0.03162 µM). The values for the relative viability in the assay with CX-5461 + AZD7762 (first compound 0.3162 µM) and in the assay with CX-5461 + AZD7762 (first compound 1 µM) were 0.544 and 0.311, respectively.
